Measured values published in the METLIN SMRT retention time set (Domingo-Almenara et al. 2019).

Test: gradient 5% acetonitrile 3 min, to 50% in 2 min, to 85% in 15 min, held 3 min, 100 µL/min
Details: column: Zorbax Extend-C18 2.1 x 50 mm; eluents: water / acetonitrile, 0.1% formic acid
Method in brief: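 Values are retention times taken from adduct peaks that software picked and an analyst inspected. The pure standards were run as mixtures of ~100 molecules on HPLC linked to a quadrupole time-of-flight mass spectrometer, in positive and negative ionization mode. A Zorbax Extend-C18 column (2.1 × 50 mm, 1.8 μm) was used at 100 μL/min with water and acetonitrile, each including 0.1% formic acid.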

| SMILES | RP-LC retention time [s] |
| --- | --- |
| O=C1NC(=O)C2(CCc3ccccc32)N1 (stereo unspecified) | 670 |
| Cc1nn(C)c(C)c1CNC(=O)C1CC(=O)N(c2n[nH]c3cccc(F)c23)C1 (stereo unspecified) | 594 |
| O=c1n(CC2CC2)nc2n1CCN(Cc1ccncc1)C2 | 511 |
| CCOC(=O)c1c(C)[nH]c(C(=O)N2CCCC(C(=O)NC3CCCCC3)C2)c1C (stereo unspecified) | 838 |
| COC(=O)C1CCN(C(=O)c2csc(Nc3ncccn3)n2)CC1 | 644 |
| Cn1c(C(=O)NCCCN2CCCCCC2)cc2c(-c3cccs3)nn(-c3ccccc3)c21 | 795 |
| O=C1CCCc2nc(N3CCN(CCO)CC3)nc(Nc3ccccc3)c21 | 644 |
| COCC(=O)Nc1cc2c(cc1N1CCCCC1)n(C)c(=O)c(=O)n2C | 775 |
| COc1cc(-c2nc3ccc(Cl)cn3c2Nc2ccc3c(c2)OCO3)ccc1O | 679 |
| O=C(Cn1nc(Cc2ccncc2)c2ccccc2c1=O)N1CC=C(c2ccccc2)CC1 | 685 |
| C[C@H](NC(=O)[C@@H]1CCCN1C(=O)[C@@H]1CCCN1C(=O)[C@@H](O)[C@H](N)Cc1ccccc1)C(N)=O | 552 |
| Cc1cc(N2CCN(C)CC2)nc2ccc(NC(=S)NC3CCCc4ccccc43)cc12 (stereo unspecified) | 632 |
| Cc1ccc(NC(=O)CN2C(=O)NC3(CCCCC3)C2=O)cc1F | 798 |
| CCC(=O)N(C1CCOCC1)C1CCN(S(=O)(=O)c2ccccc2F)CC1 | 797 |
| CCOC(=O)c1c(NCCc2cccs2)c2cc(Cl)ccc2[nH]c1=O | 826 |
| O=S(=O)(Cc1ccccc1)N1CCCCC1c1nc(C2CC2)n[nH]1 (stereo unspecified) | 758 |
| CN(C)C(=O)c1ccc2c(c1)nc(CN1CCN(C(=O)c3ccccc3)CC1)n2C | 597 |
| Cc1ccccc1CNC(=O)C1CCCN(S(=O)(=O)c2c[nH]c(C(=O)N3CCCCCC3)c2)C1 (stereo unspecified) | 871 |
| CC(C)C(=O)Nc1nnc2n1CCS2 | 519 |
| COc1ccc(CNC(=O)C2CCN(c3nccnc3Sc3ccccc3)CC2)c(OC)c1 | 983 |
| CCCc1cc(N2CCN(C(=O)c3sccc3C)CC2)nc2nnc(C)n12 | 566 |

| SMILES | RP-LC retention time [s] |
| --- | --- |
| O=C(NCc1ccccc1)C1CCc2nc(N3CCOCC3)ncc2C1 (stereo unspecified) | 696 |
| COC(=O)C1=CN(CC(=O)N2CCN(c3ccccc3F)CC2)S(=O)(=O)N=C1C | 908 |
| O=C(NCCN1CCCC1)c1nc(Nc2ccc(F)cc2)c2ccccc2n1 | 689 |
| O=C(Nc1cnc(N2CCCCCC2)nc1)c1cnccn1 | 771 |
| CN(CC(=O)N1CCOCC1)c1nc(C2CC2)nc2c1CCC2 | 560 |
| COc1ccc(OC)c(NC(=O)CSC2CCc3ccccc3NC2=O)c1 (stereo unspecified) | 797 |
| Cc1nnc2c(NC(=O)C3CCCC3)cccn12 | 644 |
| Cc1cnc(C2CN(Cc3cccc(F)c3)C2)n1Cc1ccccc1 | 595 |
| CCCNC(=O)N(C1CCOCC1)C1CCN(C(=O)CCc2c[nH]c3ccccc23)CC1 | 730 |
| Cc1cc(C)c(C(=O)N2CCCC(C(=O)NCc3ccccc3Cl)C2)[nH]1 (stereo unspecified) | 834 |
| CC(C)NC(=O)CN1C(=O)C2CCCCN2c2ccc(S(=O)(=O)N3CCCCC3)cc21 (stereo unspecified) | 850 |
| COc1cccc(NC(=O)Cn2ncc3c(c2=O)N(CC2CC2)C(=O)CS3)c1 | 775 |
| O=S(=O)(c1ccccc1)N1CCC(N2C[C@H](Oc3ccccc3)[C@@H]2c2ccncc2)CC1 | 733 |
| Cc1[nH]c(C(=O)N2CCC(CC(=O)NC3CCCCCC3)CC2)c(C)c1C(=O)OC(C)C | 886 |
| COc1cccc(NC(=O)C2CCN(c3nc4ccc(-c5cncnc5)nc4s3)CC2)c1 | 736 |
| Cc1ccc(S(=O)(=O)N2C(=O)CCC2C(=O)NC2CCCCCC2)cc1C (stereo unspecified) | 1010 |
| COc1ccc(Cl)cc1NC(=O)N1CCCC(C)(C(=O)NCc2ccccc2)C1 (stereo unspecified) | 998 |
| O=C(NCCCN1CCOCC1)C1CCCN(c2ncnc3c2nc2n3CCCCC2)C1 (stereo unspecified) | 580 |
| Cc1sc(-n2cccc2)nc1C(=O)N1CCN(c2ccccn2)CC1 | 623 |
| CS(=O)(=O)N1CCC(C(=O)Nc2ccc(F)cc2)Oc2ccc(Cl)cc21 (stereo unspecified) | 903 |
| Cc1ccnc(NC(=O)C2CCN(S(=O)(=O)c3ccc4c(c3)sc(=O)n4C)CC2)c1 | 645 |

Further lines, results first:

| RP-LC retention time [s] | SMILES |
| --- | --- |
| 1120 | CC1=NS(=O)(=O)N(Cc2ccccc2)C=C1C(=O)OCc1nc(-c2ccccc2)no1 |
| 697 | COc1ccc(NC(=O)NCC(c2cccnc2)c2cn(C)c3ccccc23)c(OC)c1 (stereo unspecified) |
| 695 | O=C(NCc1c(F)cccc1F)c1csc(Nc2ncccn2)n1 |
| 1040 | O=C(c1ccc(F)c(Cl)c1)N1CCCC1c1nc(-c2ccccc2)no1 (stereo unspecified) |
| 643 | CCOCCCNC(=O)N1CCC(c2noc(-c3ccncc3)n2)C1 (stereo unspecified) |
| 930 | CCC(C)NC(=O)C1CCCN(c2ncccc2-c2noc(C3CCC3)n2)C1 (stereo unspecified) |
| 963 | Cc1nc(C2(C)CCN(S(=O)(=O)c3ccccc3C(F)(F)F)CC2)no1 |
| 1050 | Cc1ccc(CNC(=O)C2(C)CCN(S(=O)(=O)c3ccc(Br)s3)CC2)cc1 |
| 566 | CN(C)C(CNC(=O)Nc1ccccc1C(F)(F)F)c1ccco1 (stereo unspecified) |
| 766 | CCOc1cc(C)c(C(C)C)cc1S(=O)(=O)NCc1ccccn1 |
| 944 | Cc1ccc(-c2nc(NC(=O)Cc3csc(C)n3)sc2C)cc1 |
| 1330 | CCn1cc(-c2nc(C(=O)Nc3ccccc3Cl)cs2)c2cccnc21 |
| 748 | NS(=O)(=O)c1ccc(CCNS(=O)(=O)c2cc(-c3ccno3)cs2)cc1 |
| 1150 | Cn1nccc1-c1cccc(-c2noc(C3(c4ccccc4)CC3)n2)c1 |
| 916 | Cc1ccc(CNC(=O)N2CCCC(C)(C(=O)NCc3ccccc3C)C2)cc1 (stereo unspecified) |
| 777 | CCC(=O)NC(C)c1nc(-c2ccc(C)cc2)no1 (stereo unspecified) |
| 826 | COC(=O)c1ccc(-c2nc3cnccn3c2Nc2ccc(OC)cc2)cc1 |
| 568 | Cc1ccccc1-c1nc2cnccn2c1NCCC(=O)NC1CC1 |
| 885 | COc1ccc(-c2nc(-c3ccc(NS(C)(=O)=O)cc3)no2)c(OC)c1 |
| 735 | Cc1ccc2nc(-c3ccc(C)c(NC(=O)C4CCCCC4)c3)[nH]c2c1 |
| 917 | CCOC(=O)C1=NN(c2ccccc2)CC1C(=O)OC (stereo unspecified) |
| 707 | Cc1cccc(NC(=O)Cn2c(-c3cnccn3)nc(C)c(C)c2=O)c1 |
| 986 | CCS(=O)(=O)N1CCCc2cc(C(=O)Nc3ccccc3Br)ccc21 |
| 997 | CCc1cc(C(=O)Nc2ccc(F)cc2)nc2ccnn12 |
| 815 | O=C(Cn1cccc(-c2nc(-c3ccccc3)no2)c1=O)Nc1ccc2c(c1)OCO2 |

| RP-LC retention time [s] | SMILES |
| --- | --- |
| 660 | Cc1ccc(F)cc1NC(=O)Cn1cnc(C)c(C)c1=O |
| 847 | COc1ccc(-c2cn3c(CC(=O)Nc4cc(Cl)ccc4OC)csc3n2)cc1 |
| 937 | CCc1nc(-c2csc(S(=O)(=O)N3CCCC(C(=O)NC4CCCC4)C3)c2)no1 (stereo unspecified) |
| 885 | Cc1ccc(S(=O)(=O)N2CCC(CCNC(=O)NC(C)(C)C)CC2)cc1 |
| 547 | COc1ccc(C(=O)NCCS(=O)(=O)NCc2cccnc2)cc1 |
| 1090 | COC(=O)c1c(-c2ccc(F)cc2)noc1NCCc1cccs1 |
| 745 | CCN1C(=O)c2cccnc2Sc2cc(NC(=O)c3ccoc3)ccc21 |
| 896 | CCn1nc(-c2csc(S(=O)(=O)N3CCCCC3C)c2)ccc1=O (stereo unspecified) |
| 934 | CCc1ccc(Nc2nc(C(=O)NC3CCCC3)nc3ccccc23)cc1 |
| 505 | CCC(=O)NCc1nc2c(n1C)CN(C(=O)c1ccccc1Br)CC2 |
| 592 | CCC(=O)Nc1ccc(CCc2nc3ccc(C(=O)NCC4CCCO4)cc3[nH]2)cc1 (stereo unspecified) |
| 755 | Cc1ccccc1CNC(=O)C1c2ccccc2CC(=O)N1C (stereo unspecified) |
| 1140 | Cc1ccc(Oc2nccnc2SCC(=O)Nc2ccc(C)c(C)c2)cc1 |
| 748 | COc1ccc(CNC(=O)CCc2nc3ccc(C)cc3c(=O)n2C)cc1 |
| 688 | CCCC(NC(=O)c1cc(OC)c(OC)c(OC)c1)C(=O)Nc1nc2ccccc2[nH]1 (stereo unspecified) |
| 1100 | Cc1ccc(-c2ccc(OCC(=O)NC(C)(C)C)cc2)cc1 |
| 865 | CC1CC(=O)N(CC(=O)Nc2ccc3c(c2)OCO3)c2ccccc2S1 (stereo unspecified) |
| 830 | CCOc1ccccc1CNC(=O)Cc1csc2nc(-c3ccccc3)cn12 |
| 1060 | CCOc1cccc(-c2noc(Cc3nnc(-c4ccccc4)o3)n2)c1 |
| 947 | Cc1ccnc(Nc2nc(-c3ccc(Cl)cc3)cs2)c1 |
| 675 | CCCNC(=O)C1CCN(c2ccc(SCC(=O)Nc3cccc(C(=O)OCC)c3)nn2)CC1 |
| 684 | CC(C)c1ccc(NC(=O)c2cn3c(n2)CCCC3)cc1 |
| 840 | CCc1ccc(NC(=O)C2CCN(S(=O)(=O)c3cn(C(C)C)cn3)CC2)cc1 |
| 786 | O=C(NCc1ccc(-c2noc(-c3n[nH]c4c3CCCC4)n2)s1)C1CC1 |
